How the values were obtained:
[1] = target: T1, Cholinesterase (Homo sapiens, UniProt P06276); assay: Inhibition of recombinant human BuChE using butyrylthiocholine iodide as substrate at 10 uM preincubated with enzyme for 5 mins followed by substrate addition and measured after 1 min by Ellman's method relative to control; conditions: time 6.0 min
[2] = target: Acetylcholinesterase (Homo sapiens, UniProt P22303); assay: Inhibition of recombinant human AChE using acetylthiocholine iodide as substrate preincubated with enzyme for 5 mins followed by substrate addition and measured after 1 min by Ellman's method
[3] = target: T1, Cholinesterase; assay: Inhibition of recombinant human BuChE using butyrylthiocholine iodide as substrate preincubated with enzyme for 5 mins followed by substrate addition and measured after 1 min by Ellman's method
[4] = in vitro; conditions: PAMPA
Description: Permeability of the compound incubated for 3 to 6 hrs by PAMPA-BBB assay

[5] = Cytotoxicity against human HepG2 cells assessed as inhibition of cell growth incubated for 24 hrs by MTT assay; assay type: toxicity, cell-based
[6] = Cytotoxicity against human SH-SY5Y cells assessed as inhibition of cell growth incubated for 24 hrs by MTT assay; assay type: toxicity, cell-based

T1 sequence (P06276 whole entry): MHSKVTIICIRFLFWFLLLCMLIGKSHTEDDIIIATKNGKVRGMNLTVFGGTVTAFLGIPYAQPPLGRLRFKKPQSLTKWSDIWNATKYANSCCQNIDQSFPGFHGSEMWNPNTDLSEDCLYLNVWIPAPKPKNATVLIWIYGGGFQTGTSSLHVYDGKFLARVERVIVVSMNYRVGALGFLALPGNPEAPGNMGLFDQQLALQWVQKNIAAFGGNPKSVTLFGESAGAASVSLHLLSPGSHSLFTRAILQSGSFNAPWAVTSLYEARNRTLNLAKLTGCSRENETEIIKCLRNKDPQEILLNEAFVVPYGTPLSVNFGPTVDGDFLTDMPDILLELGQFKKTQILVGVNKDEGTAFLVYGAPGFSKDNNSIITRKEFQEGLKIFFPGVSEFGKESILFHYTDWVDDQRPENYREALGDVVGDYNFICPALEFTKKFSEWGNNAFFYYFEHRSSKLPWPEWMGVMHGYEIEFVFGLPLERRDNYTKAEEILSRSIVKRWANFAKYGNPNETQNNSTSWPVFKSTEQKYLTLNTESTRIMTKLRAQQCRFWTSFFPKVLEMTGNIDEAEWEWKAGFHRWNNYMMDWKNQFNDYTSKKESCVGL
Acetylcholinesterase, sequence (P22303 whole entry): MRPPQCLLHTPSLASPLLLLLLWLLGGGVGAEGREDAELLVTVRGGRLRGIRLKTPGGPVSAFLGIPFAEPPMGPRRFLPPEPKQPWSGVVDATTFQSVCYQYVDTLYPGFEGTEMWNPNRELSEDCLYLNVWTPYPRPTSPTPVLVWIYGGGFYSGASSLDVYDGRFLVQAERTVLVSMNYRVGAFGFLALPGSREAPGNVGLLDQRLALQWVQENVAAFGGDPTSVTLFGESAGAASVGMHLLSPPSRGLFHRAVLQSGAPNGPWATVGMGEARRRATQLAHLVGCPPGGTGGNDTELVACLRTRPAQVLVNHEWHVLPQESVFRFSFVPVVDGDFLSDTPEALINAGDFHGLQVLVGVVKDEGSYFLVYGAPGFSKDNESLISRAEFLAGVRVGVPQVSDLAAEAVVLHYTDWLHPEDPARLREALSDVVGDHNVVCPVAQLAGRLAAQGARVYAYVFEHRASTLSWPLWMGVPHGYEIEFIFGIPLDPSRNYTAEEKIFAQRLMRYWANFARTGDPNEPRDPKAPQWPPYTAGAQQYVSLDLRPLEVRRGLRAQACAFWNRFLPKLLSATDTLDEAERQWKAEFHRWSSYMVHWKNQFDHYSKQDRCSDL

Row | Structure (SMILES) | inhibition [1] [%] | IC50 [2] [µM] | IC50 [3] [µM] | Papp [4] [×10⁻⁶ cm/s] | IC50 at 24 h [5] [µM] | IC50 at 24 h [6] [µM]
1 | C#CCN(CCc1ccc(OC)cc1)Cc1cccc(OC)c1OCc1ccccc1 | 66 | > 10 | 1.3 |  |  | 
2 | CCCN(CCCc1cccc(F)c1)Cc1cccc(OC)c1OCc1ccccc1 | 97 | > 10 | 0.039 | 27 | 41 | 123
3 | C=CCN(CCc1ccccc1OC)Cc1cccc(OC)c1OCc1ccccc1 | 90 | > 10 | 0.3 |  |  | 
4 | COc1ccc(CCNCc2cccc(OC)c2OCc2ccccc2)cc1 | 94 | > 10 | 0.4 |  |  | 
5 | CCCN(CCc1ccccc1)Cc1cccc(OC)c1OCc1ccccc1 | 91 | > 10 | 0.5 |  |  | 
6 | COc1cccc(/C=N/CCc2ccc(O)cc2)c1OCc1ccccc1 | 48 | > 10 | 8 |  |  | 
7 | CCN(CCc1ccc(O)cc1)Cc1cccc(OC)c1OCc1ccccc1 | 94 | > 10 | 0.3 |  |  | 
8 | COc1cccc(CNCCCCc2ccccc2)c1OCc1ccccc1 | 94 | > 10 | 0.2 |  |  | 
9 | C#CCN(CCc1ccc(O)cc1)Cc1cccc(OC)c1OCc1ccccc1 | 78 | > 10 | 1.9 |  |  | 
10 | COc1cccc(CNCCc2ccccc2)c1OCc1ccccc1 | 93 | > 10 | 0.4 |  |  | 
11 | C=CCN(CCCc1ccccc1)Cc1cccc(OC)c1OCc1ccccc1 | 98 | > 10 | 0.04 | 28 | > 200 | > 200
12 | C=CCN(CCc1ccc(O)cc1)Cc1cccc(OC)c1OCc1ccccc1 | 96 | > 10 | 0.3 |  |  | 
13 | COc1cccc(CN(C)CCCc2ccccc2)c1OCc1ccccc1 | 97 | > 10 | 0.1 |  |  | 
14 | CCCN(CCc1cccc(OC)c1)Cc1cccc(OC)c1OCc1ccccc1 | 89 | > 10 | 0.9 |  |  | 
15 | C=CCN(CCc1ccccc1)Cc1cccc(OC)c1OCc1ccccc1 | 88 | > 10 | 0.4 |  |  | 
16 | CCN(CCc1ccccc1)Cc1cccc(OC)c1OCc1ccccc1 | 91 | > 10 | 0.6 |  |  | 
17 | COc1cccc(CCNCc2cccc(OC)c2OCc2ccccc2)c1 | 77 | > 10 | 2.5 |  |  | 
18 | CCCCCCN(CCCc1ccccc1)Cc1cccc(OC)c1OCc1ccccc1 | 95 | > 10 | 0.04 | 9 | 106 | 110
19 | C#CCN(CCc1ccc(OCC=C)cc1)Cc1cccc(OC)c1OCc1ccccc1 | 42 | > 10 | > 10 |  |  | 
20 | CCCCCCN(CCCCc1ccccc1)Cc1cccc(OC)c1OCc1ccccc1 | 78 | > 10 | 0.7 |  |  | 
21 | CCCN(CCc1ccc(OC)cc1)Cc1cccc(OC)c1OCc1ccccc1 | 82 | > 10 | 1.4 |  |  | 
22 | COc1ccc2c3c1O[C@H]1C[C@@H](O)C=C[C@@]31CCN(C)C2 [GALANTAMINE] |  |  |  |  | 4200 | 4700
23 | C#CCOc1ccc(CCN(CC#C)Cc2cccc(OC)c2OCc2ccccc2)cc1 | 72 | > 10 | 0.2 |  |  | 
24 | COc1ccccc1CCN(C)Cc1cccc(OC)c1OCc1ccccc1 | 85 | > 10 | 0.8 |  |  | 
25 | COc1ccc(CCN(C)Cc2cccc(OC)c2OCc2ccccc2)cc1 | 76 | > 10 | 3.2 |  |  | 

Row | Structure (SMILES) | inhibition [1] [%] | IC50 [2] [µM] | IC50 [3] [µM] | Papp [4] [×10⁻⁶ cm/s] | IC50 at 24 h [5] [µM] | IC50 at 24 h [6] [µM]
26 | CCN(CCc1ccc(OC)cc1)Cc1cccc(OC)c1OCc1ccccc1 | 77 | > 10 | 2.5 |  |  | 
27 | C#CCOc1ccc(CCN(CC=C)Cc2cccc(OC)c2OCc2ccccc2)cc1 | 64 | > 10 | 2.2 |  |  | 
28 | COc1cccc(CN(CCCc2ccccc2F)C2CCCC2)c1OCc1ccccc1 | 99 | > 10 | 0.006 | 61 | 28 | 55
29 | C#CCN(CCc1ccccc1)Cc1cccc(OC)c1OCc1ccccc1 | 46 | > 10 | > 10 |  |  | 
30 | COc1cccc(CNCC(C)c2ccccc2)c1OCc1ccccc1 (stereo not drawn) | 96 | > 10 | 0.16 |  |  | 
31 | CCN(CCc1ccccc1OC)Cc1cccc(OC)c1OCc1ccccc1 | 94 | > 10 | 0.7 |  |  | 
32 | CCN(CCCc1ccccc1)Cc1cccc(OC)c1OCc1ccccc1 | 98 | > 10 | 0.06 |  | 23 | 34
33 | COc1ccccc1CCNCc1cccc(OC)c1OCc1ccccc1 | 88 | > 10 | 0.8 |  |  | 
34 | CCCN(CCCc1ccccc1O)Cc1cccc(OC)c1OCc1ccccc1 | 95 | > 10 | 0.22 |  |  | 
35 | CO/N=C(\C(=O)N[C@@H]1C(=O)N2C(C(=O)O)=C(COC(N)=O)CS[C@H]12)c1ccco1 [CEFUROXIME] |  |  |  | 0.6 |  | 
36 | COc1cccc(CNC(C)CCc2ccccc2)c1OCc1ccccc1 (stereo not drawn) | 97 | > 10 | 0.13 |  |  | 
37 | C=CCOc1ccc(CCN(CC=C)Cc2cccc(OC)c2OCc2ccccc2)cc1 | 71 | > 10 | 1.3 |  |  | 
38 | CCCN(CCc1ccccc1OC)Cc1cccc(OC)c1OCc1ccccc1 | 92 | > 10 | 0.7 |  |  | 
39 | COc1cccc(CNCCCc2ccccc2)c1OCc1ccccc1 | 97 | > 10 | 0.09 | 21 |  | 8.9
40 | CCOc1ccc(CCN(CC)Cc2cccc(OC)c2OCc2ccccc2)cc1 | 84 | > 10 | 0.9 |  |  | 
41 | C=CCN(CCc1cccc(OC)c1)Cc1cccc(OC)c1OCc1ccccc1 | 76 | > 10 | 1.5 |  |  | 
42 | C#CCN(CCCc1ccccc1)Cc1cccc(OC)c1OCc1ccccc1 | 76 | > 10 | 0.23 |  |  | 
43 | CCN(CCc1cccc(OC)c1)Cc1cccc(OC)c1OCc1ccccc1 | 88 | > 10 | 0.9 |  |  | 
44 | CCCN(CCCc1cccc(O)c1)Cc1cccc(OC)c1OCc1ccccc1 | 96 | > 10 | 0.16 |  |  | 
45 | COc1cccc(CN(CCCCc2ccccc2)CCCC(C)C)c1OCc1ccccc1 | 87 | > 10 | 0.29 |  |  | 
46 | CCCCCCCCCCCCCCN(CCCCc1ccccc1)Cc1cccc(OC)c1OCc1ccccc1 | 25 | > 10 | > 10 |  |  | 
47 | C#CCN(CCc1ccccc1OC)Cc1cccc(OC)c1OCc1ccccc1 | 35 | > 10 | > 10 |  |  | 
48 | C=CCN(CCc1ccc(OC)cc1)Cc1cccc(OC)c1OCc1ccccc1 | 72 | > 10 | 2 |  |  | 
49 | C#CCN(CCc1cccc(OC)c1)Cc1cccc(OC)c1OCc1ccccc1 | 28 | > 10 | > 10 |  |  | 
50 | COc1cccc(CNCc2ccccc2)c1OCc1ccccc1 | 78 | > 10 | 1.5 |  |  | 

From ChEMBL document CHEMBL5360557 (Eur J Med Chem, 2023)
